Laboratory results published in US12139470B2, “Trioxolane agents” (The Regents of the University of California, priority 2017, dated 2024).

What was measured:
PC-3 xenograft = test: PET imaging of PC-3 xenograft mouse; format: in vivo; conditions: tail vein injection
Text: Compounds 1 and specific examples B9[^18F] and B20[^18F] above are PET imaging reagent with applications in cancer, infectious disease, and inflammation. […] Additional, more quantitative, biodistribution data (e.g., biodistribution data for probes B9 and B20) is included in FIGS. 5-8. […] The imaging reagents above provides a new paradigm for imaging diverse cancer types based on metabolic changes in iron metabolism in tumors and other aspects of tumor biology (hypoxia, necrosis, macrophage infiltration). Imaging primary tumors and metastases and other therapeutic conditions involving aberrant production of labile Fe(II) such as inflammation and infection.

[1] = tested on: Plasmodium falciparum: strain W2; test: Plasmodium falciparum growth inhibition assay (EC50 determinations); format: cell-based; conditions: Plasmodium falciparum, W2; against P. falciparum, in vitro; read-out: potency against P. falciparum
Protocol: The growth inhibition assay for P. falciparum was conducted as described previously^29 with minor modifications. […] Following 48 hours of incubation, the cells were fixed by adding 0.1 ml of 2% formaldehyde in phosphate buffered saline, pH=7.4 (PBS). […] Parasitemias were determined from dot plots (forward scatter vs. fluorescence) using [sequence] software (Becton Dickinson). EC50 values for growth inhibition were determined from plots of percentage control parasitemia over inhibitor concentration using GraphPad Prism software.

[2] = Dissolution in oral gavage formulation; format: physicochemical; conditions: 10% DMSO, 40% of a 20% solution of 2-hydroxypropyl-cyclodextrin in water, 50% PEG400; 80, 40 and 30 mg/kg doses; sonication
Protocol: As such, we chose to screen the two regioisomers in a head-to-head study against P. berghei infected mice. In order to carry out this experiment, both compounds first needed to be formulated in a manner that would allow for treatment of the mice by oral gavage. […] Returning to the 3′ regioisomer, the actual doses were then successfully prepared according to the following instructions. The necessary amount of DMSO solution was removed from the vial and added to a new vial. For the 80 mg/kg dose, no additional DMSO was needed to be added to the vial. […] Upon adding the aqueous portion to the 80, 40, and 30 mg/kg doses, a white solution formed (resembled more of an emulsion then a heterogeneous solution). The vials were then placed in a bath sonicator in an attempt to redissolve the material. […] However, even after storing the material at −20° C., the compound was not observed to crash out of the formulation again. For the second attempt at preparing the necessary formulation for the actual OZ439, the material was partitioned such that when the dilutions were performed, the highest concentration that would be prepared from the stock solution would be the 10 mg/kg doses. As such, the 80, 40, and 30 mg/kg doses were all prepared directly by partitioning the requisite amounts into separate vials and then adding the necessary amounts of the formulation to reach the desired concentration. […]

[3] = Dissolution in DMSO (stock solution); format: physicochemical
Protocol: The way in which the formulations were prepared involved preparing a stock solution of the compound in DMSO, and then performing dilutions from this stock such that the requisite final concentration was obtained after the addition of all the necessary formulation components. Practically speaking, this was accomplished by partitioning a portion of each compound into separate 4 mL vials, and then placing these vials on the lyophilizer to ensure the compounds were completely dry. This led to a vial containing 49.5 mg of the 3′ OZ439 regioisomer, while the other held 51.0 mg of OZ439. […] This entailed adding 309.4 μL of DMSO to the vial with the 3′ OZ439 regioisomer, whereas 318.8 μL of DMSO was added to the vial containing actual OZ439. In the past, an issue has not arisen when doing this. However, this time, a major problem presented itself. The problem was not with the newly developed 3′ regioisomer of OZ439, but with OZ439 itself. After addition of DMSO to the vials, the majority of the 3′ regioisomer dissolved, whereas none of the actual OZ439 did. In an attempt to assist with dissolving the material, the two vials were then placed a water bath set to 42° C. […] The vial was then placed in a bath sonicator for 60 minutes, ultimately to no avail as […] dissolution of the material. […] At this point, the vial was then placed on the Hi-Vac to remove the DMSO. Once dry, the material was partitioned again in an attempt to get the material to dissolve at a lower concentration.
For the second attempt at preparing the necessary formulation for the actual OZ439, the material was partitioned such that when the dilutions were performed, the highest concentration that would be prepared from the stock solution would be the 10 mg/kg doses. As such, the 80, 40, and 30 mg/kg doses were all prepared directly by partitioning the requisite amounts into separate vials and then adding the necessary amounts of the formulation to reach the desired concentration. For the vial that was employed in aliquoting from to prepare the other concentrations, it contained 15.5 mg of OZ439. DMSO (775 μL) was then added to this vial, to yield a final concentration of 20 mg/mL (55 mM). […] Only after allowing the vial to warm in a 55° C. water bath for 30 minutes did the material finally dissolve. At this point, the material was brought back to the bench to aliquot the material en route to preparing the remaining doses. However, upon being removed from the bath, the compound began to crash out as it cooled to room temperature. For this reason, the vial was heated with a heat gun for about 10-15 seconds to get the material to dissolve fully once again. […]

[4] = 160 mg/mL (341 mM) in DMSO, water bath 42° C., then 55° C. and sonication for OZ439

SMILES	PET distribution (PC-3 xenograft)	EC50 [1] [nM]	dissolution in formulation [2]	dissolution in DMSO [3, 4]	dissolution in DMSO ([3]; 160 mg/mL (341 mM) in DMSO, water bath 42° C., then 55° C. and sonication for OZ439, listed as 3′ regioisomer of OZ439)	dissolution in DMSO ([3]; 20 mg/mL (55 mM) in DMSO)
O=C(NCCCNC(=O)C12CC3CC(C1)[C@]1(OO[C@]4(CC[C@@H](c5ccc(OCCN6CCOCC6)cc5)CC4)O1)C(C3)C2)c1ccc(F)cc1 [B9, N-(3-(4-fluorobenzamido)propyl)-4″-(4-(2-morpholinoethoxy)phenyl)dispiro[adamantane-2,3′-[1,2,4]trioxolane-5′,1″-cyclohexane]-5-carboxamide]	accumulation in the small intestine					
c1cc([C@@H]2CCC[C@]3(C2)OOC2(O3)C3CC4CC(C3)CC2C4)ccc1OCCN1CCOCC1 (stereo in doubt) [A5, 4-(2-(4-(dispiro[adamantane-2,3′-[1,2,4]trioxolane-5′,1″-cyclohexan]-3″-yl)phenoxy)ethyl)morpholine]		19.5 ± 1.6	completely dissolved	dissolved much more rapidly in DMSO than did OZ439	completely dissolved	
c1cc([C@H]2CC[C@]3(CC2)OO[C@]2(O3)C3CC4CC(C3)CC2C4)ccc1OCCN1CCOCC1 [OZ439, artefenomel, reference compound]		7.9 ± 0.2	unsuccessful in getting the material to dissolve	did not dissolve		did not readily dissolve
